This note sets out measurements from patent publication US10407425B2, “Indazole inhibitors of the Wnt signal pathway and therapeutic uses thereof” (Samumed, LLC, priority 2012, dated 2019).

This test has as its system Wnt activity. Description: Wnt activity reporter assay (SP5 promoter firefly luciferase in SW480 cells). Type of test: cell-based. As to conditions: Homo sapiens; SW480 cells bearing SP5 promoter luciferase reporter; 24 h after compound addition; read-out: Wnt inhibition. The text has this: The above synthesized compounds were screened using the assay procedure for Wnt activity described below.
Reporter cell lines can be generated by stably transducing cells of cancer cell lines (e.g., colon cancer) with a lentiviral construct that include a wnt-responsive promoter driving expression of the firefly luciferase gene.
Lentiviral constructs can be made in which the SP5 promoter, a promoter having eight TCF/LEF binding sites derived from the SP5 promoter, is linked upstream of the firefly luciferase gene. The lentiviral constructs can also include a hygromycin resistance gene as a selectable marker. The SP5 promoter construct can be used to transduce SW480 cells, a colon cancer cell line having a mutated APC gene that generates a truncated APC protein, leading to de-regulated accumulation of β-catenin.
Cultured SW480 cells bearing a reporter construct can be distributed at approximately 10,000 cells per well into 384 well multiwell plates. Compounds from a small molecule compound library can then be added to the wells in half-log dilutions using a three micromolar top concentration. A series of control wells for each cell type receive only buffer and compound solvent. Twenty-four hours after the addition of compound, reporter activity for luciferases can be assayed, for example, by addition of the BrightGlo luminescence reagent (Promega) and the Victor3 plate reader (Perkin Elmer). Readings can be normalized to DMSO only treated cells, and normalized activities can then be used in the IC50 calculations.
Background: In a reporter assay the amount or activity of a reporter protein is the signal.
`CC(C)CC(=O)Nc1cncc(-c2ccc3[nH]nc(-c4nc5c(N6CCCCC6)cncc5[nH]4)c3c2)c1` [Compound 199, 3-Methyl-N-(5-(3-(7-(piperidin-1-yl)-3H-imidazo[4,5-c]pyridin-2-yl)-1H-indazol-5-yl)pyridin-3-yl)butanamide]: the IC50 was found to be 311 nM.

On to `CC(C)C(=O)Nc1cncc(-c2ccc3[nH]nc(-c4nc5c(-c6ccccc6F)cncc5[nH]4)c3c2)c1` [Compound 31, N-(5-(3-(7-(2-Fluorophenyl)-3H-imidazo[4,5-c]pyridin-2-yl)-1H-indazol-5-yl)pyridin-3-yl)isobutyramide], for which the IC50 was 5 nM.

Consider `c1cc(-c2cncc3[nH]c(-c4n[nH]c5ccc(-c6cncc(CNCC7CCCC7)c6)cc45)nc23)cs1` [Compound 311, 1-Cyclopentyl-N-((5-(3-(7-(thiophen-3-yl)-3H-imidazo[4,5-c]pyridin-2-yl)-1H-indazol-5-yl)pyridin-3-yl)methyl)methanamine], for which the IC50 worked out at 58 nM. On to `Cc1ccncc1-c1ccc2[nH]nc(-c3nc4c(N5CCCCC5)cncc4[nH]3)c2c1` [Compound 202, 2-(5-(4-Methylpyridin-3-yl)-1H-indazol-3-yl)-7-(piperidin-1-yl)-3H-imidazo[4,5-c]pyridine], for which the IC50 is 535 nM. In the case of `CN(C)Cc1cncc(-c2ccc3[nH]nc(-c4nc5c(-c6ccsc6)cncc5[nH]4)c3c2)c1` [Compound 301, N,N-Dimethyl-1-(5-(3-(7-(thiophen-3-yl)-3H-imidazo[4,5-c]pyridin-2-yl)-1H-indazol-5-yl)pyridin-3-yl)methanamine], the IC50 was found to be 69 nM.

Turning to `c1cc(-c2cncc3[nH]c(-c4n[nH]c5ccc(-c6cncc(CN7CCCCC7)c6)cc45)nc23)ccn1` [Compound 164, 2-(5-(5-(Piperidin-1-ylmethyl)pyridin-3-yl)-1H-indazol-3-yl)-7-(pyridin-4-yl)-3H-imidazo[4,5-c]pyridine], the IC50 was greater than 6000 nM. For the compound `CC(C)CC(=O)Nc1cncc(-c2ccc3[nH]nc(-c4nc5c(N6CCN(C)CC6)cncc5[nH]4)c3c2)c1` [Compound 1, 3-methyl-N-(5-(3-(7-(4-methylpiperazin-1-yl)-3H-imidazo[4,5-c]pyridin-2-yl)-1H-indazol-5-yl)pyridin-3-yl)butanamide], the IC50 lay in the range of 140 to 150 nM. With `CC(C)C(=O)Nc1cncc(-c2ccc3[nH]nc(-c4nc5ccncc5[nH]4)c3c2)c1` [Compound 9, N-(5-(3-(3H-imidazo[4,5-c]pyridin-2-yl)-1H-indazol-5-yl)pyridin-3-yl)isobutyramide], the IC50 lay within 400 to 630 nM.

`CN1CCN(c2cncc3[nH]c(-c4n[nH]c5ccc(-c6cncc(NC(=O)CC(C)(C)C)c6)cc45)nc23)CC1` [Compound 257, 3,3-Dimethyl-N-(5-(3-(7-(4-methylpiperazin-1-yl)-3H-imidazo[4,5-c]pyridin-2-yl)-1H-indazol-5-yl)pyridin-3-yl)butanamide]: the IC50 amounted to 95 nM.

Consider `CC(C)(C)C(=O)Nc1cncc(-c2ccc3[nH]nc(-c4nc5c(N6CCCCC6)cncc5[nH]4)c3c2)c1` [Compound 205, N-(5-(3-(7-(Piperidin-1-yl)-3H-imidazo[4,5-c]pyridin-2-yl)-1H-indazol-5-yl)pyridin-3-yl)pivalamide], for which the IC50 was determined as 41 nM. For `Nc1cncc(-c2ccc3[nH]nc(-c4nc5c(-c6ccsc6)cncc5[nH]4)c3c2)c1` [Compound 291, 5-(3-(7-(Thiophen-3-yl)-3H-imidazo[4,5-c]pyridin-2-yl)-1H-indazol-5-yl)pyridin-3-amine], the IC50 was 2 nM. `CC(C)CC(=O)Nc1cncc(-c2ccc3[nH]nc(-c4nc5c(-c6ccc(F)cc6)cncc5[nH]4)c3c2)c1` [Compound 12, N-(5-(3-(7-(4-fluorophenyl)-3H-imidazo[4,5-c]pyridin-2-yl)-1H-indazol-5-yl)pyridin-3-yl)-3-methylbutanamide]: the IC50 fell in the range of 6 to 8 nM. `O=C(Nc1cncc(-c2ccc3[nH]nc(-c4nc5ccncc5[nH]4)c3c2)c1)C1CC1` [Compound 283, N-(5-(3-(3H-Imidazo[4,5-c]pyridin-2-yl)-1H-indazol-5-yl)pyridin-3-yl)cyclopropanecarboxamide]: the IC50 stood at 8 nM. In the case of `CCCC(=O)Nc1cncc(-c2ccc3[nH]nc(-c4nc5c(N6CCCCC6)cncc5[nH]4)c3c2)c1` [Compound 214, N-(5-(3-(7-(Piperidin-1-yl)-3H-imidazo[4,5-c]pyridin-2-yl)-1H-indazol-5-yl)pyridin-3-yl)butyramide], the IC50 worked out at 42 nM. The figure for `CN(C)Cc1cncc(-c2ccc3[nH]nc(-c4nc5c(-c6ccccn6)cncc5[nH]4)c3c2)c1` [Compound 186, N,N-Dimethyl-1-(5-(3-(7-(pyridin-2-yl)-3H-imidazo[4,5-c]pyridin-2-yl)-1H-indazol-5-yl)pyridin-3-yl)methanamine] is 38 nM; for `CC(C)Nc1cncc(-c2ccc3[nH]nc(-c4nc5c(-c6ccccc6F)cncc5[nH]4)c3c2)c1` [Compound 124, 5-(3-(7-(2-Fluorophenyl)-3H-imidazo[4,5-c]pyridin-2-yl)-1H-indazol-5-yl)-N-isopropylpyridin-3-amine] it is 1 nM. Regarding `Fc1ccc(-c2cncc3[nH]c(-c4n[nH]c5ccc(-c6cncc(CN7CCCC7)c6)cc45)nc23)cc1` [Compound 107, 7-(4-Fluorophenyl)-2-(5-(5-(pyrrolidin-1-ylmethyl)pyridin-3-yl)-1H-indazol-3-yl)-3H-imidazo[4,5-c]pyridine], the IC50 turned out to be 52 nM. Turning to `CN1CCN(c2cncc3[nH]c(-c4n[nH]c5ccc(-c6cncc(NC(=O)C7CCCCC7)c6)cc45)nc23)CC1` [Compound 263, N-(5-(3-(7-(4-Methylpiperazin-1-yl)-3H-imidazo[4,5-c]pyridin-2-yl)-1H-indazol-5-yl)pyridin-3-yl)cyclohexanecarboxamide], the IC50 was 86 nM.

With `CCC(=O)Nc1cncc(-c2ccc3[nH]nc(-c4nc5c(-c6ccccn6)cncc5[nH]4)c3c2)c1` [Compound 174, N-(5-(3-(7-(Pyridin-2-yl)-3H-imidazo[4,5-c]pyridin-2-yl)-1H-indazol-5-yl)pyridin-3-yl)propionamide], the IC50 came to 3 nM.

`c1cc(-c2cncc3[nH]c(-c4n[nH]c5ccc(-c6cncc(CN7CCCCC7)c6)cc45)nc23)cs1` [Compound 303, 2-(5-(5-(Piperidin-1-ylmethyl)pyridin-3-yl)-1H-indazol-3-yl)-7-(thiophen-3-yl)-3H-imidazo[4,5-c]pyridine]: the IC50 was determined as 1000 nM. The figure for `O=C(Nc1cncc(-c2ccc3[nH]nc(-c4nc5c(-c6ccc(F)cc6)cncc5[nH]4)c3c2)c1)c1ccccc1` [Compound 104, N-(5-(3-(7-(4-Fluorophenyl)-3H-imidazo[4,5-c]pyridin-2-yl)-1H-indazol-5-yl)pyridin-3-yl)benzamide] is 7 nM; for `CN1CCN(c2cncc3[nH]c(-c4n[nH]c5ccc(-c6cncc(NC(=O)C7CC7)c6)cc45)nc23)CC1` [Compound 260, N-(5-(3-(7-(4-Methylpiperazin-1-yl)-3H-imidazo[4,5-c]pyridin-2-yl)-1H-indazol-5-yl)pyridin-3-yl)cyclopropanecarboxamide] it is 315 nM. The same measure for `CN1CCN(c2cncc(-c3ccc4[nH]nc(-c5nc6ccncc6[nH]5)c4c3)c2)CC1` [Compound 7, 2-(5-(5-(4-methylpiperazin-1-yl)pyridin-3-yl)-1H-indazol-3-yl)-3H-imidazo[4,5-c]pyridine]: 214 to 463 nM.
